Assay [1] relates to IFNγ mRNA. Nature of the assay: IFNγ mRNA levels by RT-PCR (control) in day 6 T cells stimulated with plate bound α-CD3. It counts as cell-based, human. As to conditions: 25 µM vitamin E 1 h, then α-CD3 12 h (Fig. 1B). On the procedure: The day 6 T cells were cultured in the absence or presence of 25 µM vitamin E for 1 h and then stimulated for 12 h with plate bound α-CD3. The mRNA was analyzed by RT-PCR using primers specific for CD95L (Eichhorst et al., Mol. Cell. Biol. 20 (2000), 7826) . For controls, primers for IFNγ and β-actin were used. The primers had the following sequences: • CD95L: sense-5'-[…]-3' antisense-5'[…]-3' • IFN-γ: sense-5'[…]-3' antisense-5'[…]-3' • human β-actin: sense-5'[…]-3' antisense-5'[…]-3'
Since activation-induced-cell-death (AICD) is a major cause of T cell depletion in AIDS and since supplementation of vitamin E is shown to increase T cell numbers, it was investigated whether vitamin E could protect from T cell depletion by AICD. To analyze the effect of vitamin E on T cell death, freshly isolated peripheral blood T cells were prestimulated for 6 days (referred to as day 6 cells) and subsequently restimulated via the TCR by plate-bound α-CD3 antibodies. […] CD95 (APO-1/Fas) and its ligand (CD95L) are known to play a major role in AICD of T cells. […] The concentration of vitamin E in plasma from healthy individuals normally ranges from 12-35 µM. Thus, vitamin E at physiological concentrations may attenuate AICD. Indeed, depending on the blood donors, vitamin E reduced AICD by 20-50%. […]

In assay [2] the test system is IFNγ mRNA. Nature of the assay: IFNγ mRNA by RT-PCR (control) in J-27 T cells stimulated by PMA and ionomycin. The conditions noted are these: J-27 cells, 50 µM vitamin E, PMA/ionomycin (Fig. 2E). It counts as cell-based. On the procedure:
(§1) J-27 T cells were cultured in the absence or presence of 50 µM vitamin E for 1 h and then stimulated by PMA (10 ng/ml) and ionomycin (0.5 µM) for the indicated times. CD95L mRNA expression was analyzed by RT-PCR. Primers for IFNγ and β-actin were used as controls.
(§2) To further investigate the molecular mechanism by which vitamin E attenuates AICD, several Jurkat T cell sub-clones susceptible to T-cell-receptor (TCR)-mediated-activation-induced apoptosis were selected. Data from one of the representative clones, clone 27 (J-27) is presented here. Activation of T cells through the T cell receptor can be mimicked by stimulation with the phorbol ester (PMA) and calcium ionophores (ionomycin). […] Therefore, it is unlikely that vitamin E directly interferes with signals downstream of the CD95 receptor. […] Thus, vitamin E may reduce CD95L expression at the transcriptional level and, therefore, attenuate AICD in J-27 cells. Experimental details are given in the legend to Figure 2.

Another assay deals with NF-κB. Nature of the assay: EMSA, nuclear extracts of J-27 T cells, binding to CD95L promoter NF-κB sites. The conditions noted are these: J-27 nuclear extracts, PMA/ionomycin 2 h, 50 µM vitamin E added 1 h before induction (Fig. 3A). It counts as cell-based. On the procedure:
(A)^32P-labeled oligonucleotides containing the CD95L NF-κB (at the promoter -530 and -50 region) (Li-Weber et al., Eur. J. Immunol. 30 (2000), 661) and AP-1 (at the promoter +90 region) (Eichhorst et al., Mol. Cell. Biol. 20 (2000), 7826) binding sequences were analyzed by EMSA as described (Li-Weber et al., (2000). The EMSA probes had the following sequences: • CD95L NF-κB at-530: 5'-[…]-3' • CD95L NF-κB at-50: 5'-[…]-3' • CD95L AP-1 at +90: 5'-[…]-3'
(§3) Nuclear extracts were prepared from J-27 T cells either non-induced (-) or induced (+) for 2 h by PMA (10 ng/ml) and ionomycin (0.5 µM) in the absence (-) or presence (+) of 50 µM vitamin E (VE) (added 1 h before induction). The inducible complex corresponding to NF-κB and AP-1 were indicated. A NF-Y binding oligonucleotide 5'[…]-3' was used for equal loading of nuclear extracts.
It was investigated whether vitamin E affects NF-KB and AP-1 binding to the CD95L promoter target sites. Nuclear extracts were prepared from J-27 T cells stimulated in the presence or absence of vitamin E. The NF-κB and AP-1 binding sites contained in the CD95L promoter were used as probes in an electrophoretic-mobility-shift-assay (EMSA). Stimulation of T cell with PMA and ionomycin induced binding of nuclear factors to the NF-κB and AP-1 sites of the CD95L promoter (Fig. 3A). […]

The subject of assay [3] is CD95L mRNA. Nature of the assay: CD95L mRNA expression by RT-PCR in J-27 T cells stimulated by PMA and ionomycin. It counts as cell-based. The conditions noted are these: J-27 cells. On the procedure:
as §1, §2

The test system of the next assay is NF-Y. Put plainly: EMSA control, constitutive transcription factor, NF-Y binding oligonucleotide. It counts as cell-based. The conditions noted are these: J-27 nuclear extracts, 50 µM vitamin E (Fig. 3A). On the procedure: as §3
It was investigated whether vitamin E affects NF-KB and AP-1 binding to the CD95L promoter target sites. Nuclear extracts were prepared from J-27 T cells stimulated in the presence or absence of vitamin E. The NF-κB and AP-1 binding sites contained in the CD95L promoter were used as probes in an electrophoretic-mobility-shift-assay (EMSA). Stimulation of T cell with PMA and ionomycin induced binding of nuclear factors to the NF-κB and AP-1 sites of the CD95L promoter (Fig. 3A). These inducible binding complexes were either reduced or supershifted in the presence of antibodies against the subunits p50 and p65 of NF-κB or antibodies against the AP-1 family members Jun and Fos (Fig. 3B). […] As a control, the constitutive transcription factor […] was not affected by vitamin E (Fig. 3A). Experimental details are given in the legend to Figure 3.

The subject of assay [4] is CD95L mRNA. Nature of the assay: CD95L mRNA levels by RT-PCR in peripheral blood lymphocytes of HIV positive individuals. It counts as cell-based, human. As to conditions: 25 µM vitamin E 1 h, α-CD3 12 h (Fig. 5). On the procedure:
Freshly isolated peripheral blood lymphocytes from HIV positive individuals were treated without or with vitamin E (VE) (25 µM) for 1 h and than stimulated with plate bound α-CD3 ([…]) for 12 h. CD95L mRNA levels were examined by RT-PCR (Eichhorst et al., 2000). Results from 5 individuals are shown.
It was investigated whether vitamin E could block CD95L expression in the peripheral blood lymphocytes of HIV positive individuals. Peripheral blood lymphocytes from such individuals were subjected to analysis of the CD95L mRNA expression levels in the absence or the presence of vitamin E. Different levels of the CD95L mRNA expression were found in lymphocytes from different HIV patients examined. […] Experimental details are given in the legend to Figure 5.

A further assay has as its system Egr binding site. Nature of the assay: Luciferase reporter assay in J-27 T cells, three copies of the Egr consensus binding site (control). It counts as cell-based. As to conditions: J-27 cells, 50 µM vitamin E 1 h, PMA/ionomycin 8 h, control (Fig. 4). The source says: J-27 T cells were transiently transfected with the luciferase reporter constructs containing the 0.86-kb CD95L promoter (Li-Weber et al., Eur. J. Immunol. 30 (2000), 661), or three copies of the NF-κB binding sites at -530 or -50 region (Li-Weber et al., Eur. J. Immunol. 30 (2000), 661) or the AP-1 motif at +90 region (Eichhorst et al., Mol. Cell. Biol. 20 (2000), 7826) of the CD95L promoter as described in Li-Weber et al., 2000. All promoter constructs are described in the cited references. A luciferase reporter construct containing three copies of the Egr consensus binding site was used as a control (Li-Weber et al., Eur. J. Immunol. 29 (1999), 3017). After overnight culture, the cells were divided and treated with vitamin E (VE) (50 µM) or the vitamin E solvent ethanol for 1 h and than further cultured in the absence (empty box) or presence (black box) of PMA (10 ng/ml) and ionomycin (0.5 µM). Luciferase activity was determined after 8 h of stimulation. Results represent the average of three to five independent transfection experiments.
To further investigate the effect of vitamin E on CD95L expression, the CD95L promoter (-860 to +100) or a minimal TATA promoter containing three copies of either the NF-B or the AP1 sites of the CD95L promoter were linked to the luciferase reporter gene and these constructs were transiently transfected into J-27 T cells. […]

A further assay relates to J-27 cells. Put plainly: α-APO-1 induced CD95-triggered apoptosis in J-27 cells. It counts as cell-based. As to conditions: 50 µM vitamin E 1 h, then α-APO-1 10 ng/ml with 10 ng/ml protein A (Fig. 2D). On the procedure:
J-27 cells were cultured in the absence or presence of 50 µM vitamin E for 1 h and than, treated with α-APO-1 (10 ng/ml) antibody, DKFZ, Prof. Krammer, Trauth et al., Science 245 (1989), 301 in the presence of 10 ng/ml protein A for the indicated times.
as §2

Each structure is given as a SMILES string.

Consider one molecule from EP1273297A1, “Vitamin E for the treatment of diseases in which the binding of the transcription factor NF-KB and/or AP-1 to promoter target sites has a beneficial effect (eg AIDS, cardiac infarction)” (Deutsches Krebsforschungszentrum Stiftung des öffentlichen …, priority 2001, dated 2003).

As for `Cc1c(C)c2c(c(C)c1O)CC[C@@](C)(CCC[C@H](C)CCC[C@H](C)CCCC(C)C)O2` [vitamin E, α-tocopherol], the “levels of IFNγ mRNA” value with IFNγ mRNA [1] was “did not significantly influence”; in the assay with IFNγ mRNA [2], “not significantly changed”. The “binding of NF-κB to its binding sites of the CD95L promoter (-530 and -50 region)” value in the assay with NF-κB is recorded as “prevented binding”. The “CD95L mRNA expression” value with CD95L mRNA [3] (50 µM vitamin E 1 h, then PMA/ionomycin (Fig. 2E)) is given as “substantially reduced”; with CD95L mRNA [3] (50 µM vitamin E, 6 h post stimulation (Fig. 2E)), “nearly completely blocked”. Further, the “reduction of CD95L mRNA expression” value in the assay on CD95L mRNA [3] (50 µM vitamin E, 3 h post stimulation (Fig. 2E)) is recorded as “readily seen”. In addition, in the assay on NF-Y, the “NF-Y binding (constitutive loading control)” value is “not affected”. Besides, the “expression of CD95L mRNA” value in the assay on CD95L mRNA [4] was “completely blocked in most patients”. For the same molecule, the “luciferase expression driven by the Egr binding site” value in the assay on Egr binding site was “did not affect”. Moreover, the “α-APO-1 induced CD95-triggered apoptosis” value in the assay with J-27 cells is given as “did not prevent”.
